From patent publication US20230103631A1, “PEPTIDES AS SELECTIVE GIP RECEPTOR AGONISTS” (Sanofi, priority 2020, published 2023) come the findings set out here.

SMILES strings stand for the structures. pEC50: −log10 of the molar value. *1 amine or outer side, *2 acyl side, *3 side chain or, on linkers, in order; H or OH if unused. Where a SMILES comes first, the peptide text is derived from it. Side-chain parts run from the residue outwards. [ ]: non-standard residue; d: D form. The star is where a group is joined. C20 diacid = O=C(O)CCCCCCCCCCCCCCCCCCC(=O)*; C18 diacid = O=C(O)CCCCCCCCCCCCCCCCC(=O)*; γGlu = O=C(O)[C@H](CCC(=O)[*:2])N[*:1]; NMeY = CN[C@@H](Cc1ccc(O)cc1)C(=O)O; AEEA = NCCOCCOCC(=O)O; Aib = CC(C)(N)C(=O)O

In series [1] the target is human GLP-1 receptor (hGLP-1R) (Homo sapiens, UniProt P43220). In words: cAMP HTRF assay, HEK-293 cell line over-expressing human GLP-1 receptor. The class given is cell-based. Conditions: HEK-293, cAMP, 0% HSA. In a few lines: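 Thawed HEK-293 cells over-expressing human GLP-1R (5000 cells/well) in HBSS/20 mM HEPES buffer, with 0.1% HSA where stated, incubated with compound for 30 min at room temperature. Generated cAMP quantified by HTRF.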

Series [2] can be described thus: Chemical stability assessment (relative purity loss by UHPLC-UV). It is filed as physicochemical. Here is the method: Purity of a peptide batch was determined through UHPLC/MS prior to chemical stability measurement. The target concentration was […] pure compound. Solutions from solid samples were prepared in the following buffer systems with a concentration of ˜300 μM compound based on the previously determined % purity:
Chemical stability buffer system A) 20 mM phosphate buffer pH 7.4,
Chemical stability buffer system B) 8 mM phosphate buffer pH 7.4, 14 mg/ml propylene glycol, 5.5 mg/ml phenol
Chemical stability buffer system C) 100 mM phosphate buffer pH 7.4, 2.7 mg/ml m-cresol
Prepared solutions were filtered through […] pore size and filled into sterilized glass containers under laminar flow conditions.
Glass containers were stored for 28 days at 5 and 40° C. After this time, the samples were centrifuged for 15 min at 2500 RCF. Then 1.5 μl of the undiluted supernatant were analysed with UHPLC-UV.
The chemical stability was rated through the relative loss of purity calculated by the equation:
[(purity after 28 days at 5° C.)−(purity after 28 days at 40° C.)]/(purity after 28 days at 5° C.)]*100%
The purity is calculated as
[(peak area peptide)/(total peak area)]*100%
The analytical methods used were Analytical UHPLC Method B or C.
Peptide samples were prepared in Chemical stability buffer system A or B and stability was assessed as described in Methods.

A short description of series [3]: Dynamic light scattering (DLS) for the assessment of physical stability. It is filed as physicochemical. The source says:
A monochromatic and coherent light beam (laser) is used to illuminate the liquid sample. Dynamic Light Scattering (DLS) measures light scattered from particles (1 nm≤radius≤1 μm) that undergo Brownian motion. This motion is induced by collisions between the particles and solvent molecules, that themselves are moving due to their thermal energy. The diffusional motion of the particles results in temporal fluctuations of the scattered light (R. Pecora, Dynamic Light Scattering: Applications of Photon Correlation Spectroscopy, Plenum Press, 1985).
The scattered light intensity fluctuations are recorded and transformed into an autocorrelation function. By fitting the autocorrelation curve to an exponential function, the diffusion coefficient D of the particles in solution can be derived. The diffusion coefficient is then used to calculate the hydrodynamic radius Rh (or apparent Stokes radius) through the Stokes-Einstein equation assuming spherical particles. This calculation is defined in ISO 13321 and ISO 22412 (International Standard ISO13321 Methods for Determination of Particle Size Distribution Part 8: Photon Correlation Spectroscopy, International Organisation for Standardisation (ISO) 1996; International Standard ISO22412 Particle Size Analysis—Dynamic Light Scattering, International Organisation for Standardisation, 2008).
In case of polydisperse samples, the autocorrelation function is the sum of the exponential decays corresponding to each of the species. The temporal fluctuations of the scattered light can then be used to determine the size distribution profile of the particle fraction or family. The first order result is an intensity distribution of scattered light as a function of the particle size. The intensity distribution is naturally weighted according to the scattering intensity of each particle fraction or family. For biological materials or polymers, the particle scattering intensity is proportional to the square of the molecular weight. Thus, small amount of aggregates/agglomerates or presence or a larger particle species can dominate the intensity distribution. However, this distribution can be used as a sensitive detector for the presence of large material in the sample.
The DLS technique produces distributions with inherent peak broadening. The polydispersity index % Pd is a measure of the width of the particle size distribution and is calculated by standard methods described in ISO13321 and ISO22412 [International Standard ISO13321 Methods for Determination of Particle Size Distribution Part 8: Photon Correlation Spectroscopy, International Organisation for Standardisation (ISO) 1996; International Standard ISO22412 Particle Size Analysis—Dynamic Light Scattering, International Organisation for Standardisation (ISO) 2008].
Solutions from solid samples were prepared in buffer systems (see below) with a target concentration of 300 μM compound based on the previously determined % purity.
DLS buffer system A) 20 mM phosphate buffer pH 7.4
DLS buffer system B) 8 mM phosphate buffer pH 7.4, 14 mg/ml propylene glycol, 5.5 mg/ml phenol
DLS buffer system C) 100 mM phosphate buffer pH 7.4, 2.7 mg/ml m-cresol Solutions were filtered through 0.22 μm pore size and filled into sterilized glass containers under laminar flow conditions. For every peptide solution, the apparent hydrodynamic radius (Rh), the corresponding Scattering Intensity (I), and the Mass Contribution (M) were determined as an average over 3-6 replicates from the intensity distribution of the scattered light averaging only high-quality measurements. Relative standard deviations (RSD) for these parameters were calculated from the same number of replicates. […]

The mark [4] stands for this setting: Chemical stability buffer system A: 20 mM phosphate buffer pH 7.4.
[5] abbreviates: DLS buffer system A, 4 weeks storage at 40° C.
Where [6] appears, read: DLS buffer system B (phenol), 0 weeks.
Where [7] appears, read: DLS buffer system B (phenol), 4 weeks storage at 40° C.

Chain of human GLP-1 receptor (hGLP-1R) (P43220 24-463): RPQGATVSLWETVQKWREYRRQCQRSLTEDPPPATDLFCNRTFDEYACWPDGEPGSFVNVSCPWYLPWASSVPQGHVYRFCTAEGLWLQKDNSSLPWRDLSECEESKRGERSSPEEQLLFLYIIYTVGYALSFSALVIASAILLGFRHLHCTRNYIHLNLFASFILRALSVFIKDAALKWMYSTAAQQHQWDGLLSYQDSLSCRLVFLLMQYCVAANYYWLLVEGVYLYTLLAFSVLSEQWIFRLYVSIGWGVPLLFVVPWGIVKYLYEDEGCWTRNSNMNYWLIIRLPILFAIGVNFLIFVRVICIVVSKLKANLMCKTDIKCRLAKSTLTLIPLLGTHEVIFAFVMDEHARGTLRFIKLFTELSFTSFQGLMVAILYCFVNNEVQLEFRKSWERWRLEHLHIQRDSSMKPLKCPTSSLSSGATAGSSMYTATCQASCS

`CC[C@H](C)[C@H](NC(=O)[C@H](CCCNC(=N)N)NC(=O)[C@H](CC(=O)O)NC(=O)[C@H](CCCCNC(=O)COCCOCCNC(=O)COCCOCCNC(=O)CC[C@H](NC(=O)CCCCCCCCCCCCCCCCCCC(=O)O)C(=O)O)NC(=O)C(C)(C)NC(=O)[C@@H](NC(=O)[C@H](CO)NC(=O)[C@H](CC(C)C)NC(=O)[C@H](CC(=O)O)NC(=O)[C@H](CO)NC(=O)[C@@H](NC(=O)[C@H](Cc1ccccc1)NC(=O)[C@@H](NC(=O)CNC(=O)[C@H](CCC(=O)O)NC(=O)C(C)(C)NC(=O)[C@@H](N)Cc1ccc(O)cc1)[C@@H](C)O)[C@@H](C)CC)[C@@H](C)CC)C(=O)N[C@@H](Cc1c[nH]cn1)C(=O)N[C@@H](CCC(N)=O)C(=O)NC(C)(C)C(=O)N[C@@H](CCC(=O)O)C(=O)N[C@@H](Cc1ccccc1)C(=O)N[C@H](C(=O)N[C@@H](CCC(=O)O)C(=O)N[C@@H](Cc1c[nH]c2ccccc12)C(=O)N[C@@H](CC(C)C)C(=O)N[C@@H](CC(C)C)C(=O)N[C@@H](C)C(=O)N[C@@H](CCC(N)=O)C(=O)NCC(=O)N1CCC[C@H]1C(=O)N[C@@H](CO)C(=O)N[C@@H](CO)C(=O)NCC(=O)N[C@@H](C)C(=O)N1CCC[C@H]1C(=O)N1CCC[C@H]1C(=O)N1CCC[C@H]1C(=O)N[C@@H](CO)C(N)=O)[C@@H](C)CC` [SEQ ID NO: 7, H2N-Y-Aib-E-G-T-F-I-S-D-I-S-I-Aib-K[{AEEA}2-gGlu-C20OH]-D-R-I-H-Q-Aib-E-F-I-E-W-I-L-A-Q-G-P-S-S-G-A-P-P-P-S-NH2] (H-Y[Aib]EGTFISDLSI[Aib]K([AEEA-AEEA-γGlu-C20 diacid])DRIHQ[Aib]EFIEWLLAQGPSSGAPPPS-NH2) showed a pEC50 in series [1] below 8.00. Further, in series [2] (setting [4]), the “Relative purity loss over 28 days at 40° C.” value (shortened to “Relative purity loss”) came to 4.5%. In series [3] (DLS buffer system A, 0 weeks), the “I and SD (Scattering Intensity)” value was 85 ± 2%; the “M and SD (Mass Contribution)” value amounted to 100 ± 0%; the “apparent Rh and SD” value amounted to 2.06 ± 0.03 nm. Besides, in series [3] (setting [5]), the “I and SD (Scattering Intensity)” value worked out at 73 ± 4%; the “M and SD (Mass Contribution)” value was found to be 100 ± 0%; the “apparent Rh and SD” value was determined as 2.04 ± 0.02 nm.

With `CC[C@H](C)[C@H](NC(=O)[C@H](CCCNC(=N)N)NC(=O)[C@H](CC(=O)O)NC(=O)[C@H](CCCCNC(=O)COCCOCCNC(=O)COCCOCCNC(=O)CC[C@H](NC(=O)CCCCCCCCCCCCCCCCC(=O)O)C(=O)O)NC(=O)C(C)(C)NC(=O)[C@@H](NC(=O)[C@H](CO)NC(=O)[C@H](CC(C)C)NC(=O)[C@H](CC(=O)O)NC(=O)[C@H](CO)NC(=O)[C@@H](NC(=O)[C@H](Cc1ccccc1)NC(=O)[C@@H](NC(=O)CNC(=O)[C@H](CCC(=O)O)NC(=O)C(C)(C)NC(=O)[C@H](Cc1ccc(O)cc1)NC)[C@@H](C)O)[C@@H](C)CC)[C@@H](C)CC)C(=O)N[C@@H](Cc1c[nH]cn1)C(=O)N[C@@H](CCC(N)=O)C(=O)NC(C)(C)C(=O)N[C@@H](CCC(=O)O)C(=O)N[C@@H](Cc1ccccc1)C(=O)N[C@H](C(=O)N[C@@H](CCC(=O)O)C(=O)N[C@@H](Cc1c[nH]c2ccccc12)C(=O)N[C@@H](CC(C)C)C(=O)N[C@@H](CC(C)C)C(=O)N[C@@H](C)C(=O)N[C@@H](CCC(N)=O)C(=O)NCC(=O)N1CCC[C@H]1C(=O)N[C@@H](CO)C(=O)N[C@@H](CO)C(=O)NCC(=O)N[C@@H](C)C(=O)N1CCC[C@H]1C(=O)N1CCC[C@H]1C(=O)N1CCC[C@H]1C(=O)N[C@@H](CO)C(N)=O)[C@@H](C)CC` [SEQ ID NO: 8, MeHN-Y-Aib-E-G-T-F-I-S-D-I-S-I-Aib-K[{AEEA}2-gGlu-C180H]-D-R-I-H-Q-Aib-E-F--E-W-I-L-A-Q-G-P-S-S-G-A-P-P-P-S-NH2] (H-[NMeY][Aib]EGTFISDLSI[Aib]K([AEEA-AEEA-γGlu-C18 diacid])DRIHQ[Aib]EFIEWLLAQGPSSGAPPPS-NH2), in series [1], the pEC50 is below 8.00. The “Relative purity loss” value in series [2] (setting [4]) amounted to 4.7%. In series [3] (DLS buffer system A, 0 weeks), the “I and SD (Scattering Intensity)” value is given as 73 ± 3%; the “M and SD (Mass Contribution)” value was determined as 100 ± 0%; the “apparent Rh and SD” value is 2.06 ± 0.03 nm. In addition, in series [3] (setting [5]), the “I and SD (Scattering Intensity)” value came to 78 ± 9%; the “M and SD (Mass Contribution)” value is 100 ± 0%; the “apparent Rh and SD” value amounted to 2.00 ± 0.07 nm.

For `CC[C@H](C)[C@H](NC(=O)[C@H](Cc1ccccc1)NC(=O)[C@H](CCC(=O)O)NC(=O)[C@H](CCC(=O)O)NC(=O)[C@H](CCC(N)=O)NC(=O)[C@H](Cc1c[nH]cn1)NC(=O)[C@@H](NC(=O)[C@H](CCCNC(=N)N)NC(=O)[C@H](CC(=O)O)NC(=O)[C@H](CCCCNC(=O)COCCOCCNC(=O)COCCOCCNC(=O)CC[C@H](NC(=O)CCCCCCCCCCCCCCCCC(=O)O)C(=O)O)NC(=O)C(C)(C)NC(=O)[C@@H](NC(=O)[C@H](CO)NC(=O)[C@H](CC(C)C)NC(=O)[C@H](CC(=O)O)NC(=O)[C@H](CO)NC(=O)[C@@H](NC(=O)[C@H](Cc1ccccc1)NC(=O)[C@@H](NC(=O)CNC(=O)[C@H](CCC(=O)O)NC(=O)C(C)(C)NC(=O)[C@@H](N)Cc1ccc(O)cc1)[C@@H](C)O)[C@@H](C)CC)[C@@H](C)CC)[C@@H](C)CC)C(=O)N[C@@H](CCC(=O)O)C(=O)N[C@@H](Cc1c[nH]c2ccccc12)C(=O)N[C@@H](CC(C)C)C(=O)N[C@@H](CC(C)C)C(=O)N[C@@H](C)C(=O)N[C@@H](CCC(N)=O)C(=O)NCC(=O)N1CCC[C@H]1C(=O)N[C@@H](CO)C(=O)N[C@@H](CO)C(=O)NCC(=O)N[C@@H](C)C(=O)N1CCC[C@H]1C(=O)N1CCC[C@H]1C(=O)N1CCC[C@H]1C(=O)N[C@@H](CO)C(N)=O` [SEQ ID NO: 9, H2N-Y-Aib-E-G-T-F-I-S-D-I-S-I-Aib-K[{AEEA}2-gGlu-C18OH]-DRIHQEEFIEWILAQGPSSGAPPPS-NH2] (H-Y[Aib]EGTFISDLSI[Aib]K([AEEA-AEEA-γGlu-C18 diacid])DRIHQEEFIEWLLAQGPSSGAPPPS-NH2), the negative logarithm of the EC50 (pEC50) in series [1] is below 8.00. In addition, the “Relative purity loss” value in series [2] (setting [4]) worked out at 6.9%; in series [2] (Chemical stability buffer system B: 8 mM phosphate buffer pH 7.4, 14 mg/ml propylene glycol, 5.5 mg/ml phenol) it was 8.2%. Also, the “I and SD (Scattering Intensity)” value in series [3] (DLS buffer system A, 0 weeks) is listed as 80 ± 3%; in series [3] (setting [5]), 80 ± 3%; in series [3] (setting [6]), 82 ± 3%; in series [3] (setting [7]), 97 ± 4%. Further, the “M and SD (Mass Contribution)” value in series [3] (DLS buffer system A, 0 weeks) amounted to 100 ± 0%; in series [3] (setting [5]), 100 ± 0%; in series [3] (setting [6]), 100 ± 0%; in series [3] (setting [7]) it was 100 ± 0%. Further, the “apparent Rh and SD” value in series [3] (DLS buffer system A, 0 weeks) turned out to be 1.86 ± 0.03 nm; in series [3] (setting [5]) it was 1.87 ± 0.03 nm; in series [3] (setting [6]) it was 1.85 ± 0.04 nm; in series [3] (setting [7]), 1.73 ± 0.03 nm.
